Target: T1, cathepsin B (Homo sapiens, UniProt P07858)
T1 construct: purchased CalBiochem
Test: Cathepsin B cleavage of 7A and 7B
Type: biochemical
Conditions: substrate 100 μM, activated cathepsin B 100 nM, 50 mM sodium acetate buffer pH 5, 37° C., 16 hrs, presence or absence of 1 mM cysteine; HPLC
Description: Model compounds with a cleavable peptide unit and a heterocyclic self-immolative moiety, and conjugates of Formula I can be tested for stability and kinetics of enzymatic hydrolysis by the methods of de Groot, et al (1999) J. Med. Chem. 42(25):5277-5283.
FIG. 2 is a schematic representation of the cleavage mechanism.
A cathepsin B (CalBiochem) stock solution at 28.4 μM was diluted to 1 μM in 50 mM sodium acetate buffer pH 7.5, containing 2 mM DTT. Activation was carried out at 37° C. for 15 minutes.
Substrate compounds 7A and 7B were diluted to 100 μM in 50 mM sodium acetate buffer pH 5. Activated cathepsin B was added to a final concentration of 100 nM and the cleavage reaction was carried out at 37° C. for 16 hrs in the presence or absence of 1 mM cysteine.
Reversed-phase separation of cleavage products was carried out using an Agilent 1100 HPLC system. UV signal was monitored at 214, 254 and 380 nm. A Poroshell 300SB-C18 column (No.660750-902) from Agilent was used. Mobile phases A and B contained 0.05% TFA aqueous solution and CH3CN containing 0.05% TFA, respectively. […] The cleavage product of 4-nitroaniline was monitored by its distinct absorbance at 380 nm in the void volume. […]

Structure (SMILES)	cleavage reaction (disappearance of substrate, release of 4-nitroaniline)
CC(C)[C@@H](NC(=O)OC(C)(C)C)C(=O)N[C@H](CCCNC(N)=O)C(=O)Nc1nc(C(F)(F)F)c(COC(=O)Nc2ccc([N+](=O)[O-])cc2)s1 [Compound 7A]	complete
CC(C)[C@@H](NC(=O)CCCCCN1C(=O)C=CC1=O)C(=O)N[C@H](CCCNC(N)=O)C(=O)Nc1nc(C(F)(F)F)c(COC(=O)Nc2ccc([N+](=O)[O-])cc2)s1 [Compound 7B]	complete

Source: patent US7375078B2, “Heterocyclic self-immolative linkers and conjugates” (Genentech, Inc., priority 2004, dated 2008)
